# According to PMC7213079, “Hit Identification of New Potent PqsR Antagonists as Inhibitors of Quorum Sensing in Planktonic and Biofilm Grown Pseudomonas aeruginosa” (Frontiers in Chemistry, 2020):
# What was measured:
# Format in all cases: cell-based, Pseudomonas aeruginosa
# PAO1-L mCTX::PpqsA-lux = test: PpqsA-lux bioreporter assay, strain PAO1-L; conditions: Pseudomonas aeruginosa, PAO1, read-out: IC50 PAO1-L
# Description: In silico virtual screening was performed on the PqsR ligand binding domain (LBD) crystal structure [PDB: 4JVI; (Ilangovan et al., [2013])] using the University of Nottingham Managed Chemical Compound Collection (MCCC) containing 85,061 compounds. Molecular docking was performed using both the OpenEye docking (OpenEye Scientific Software Inc. (Hawkins et al., [2007]) and Schrödinger Suite for molecular modeling (Friesner et al., [2004]; Halgren et al., [2004]). A cut off value of the docking score function was set to -9.0 and the resulting high scoring compounds were further examined (Friesner et al., [2004]; Halgren et al., [2004]). This gave a library of around 500 diverse molecules that were evaluated using in vitro screening in a P. aeruginosa PAO1-L mCTX::PPqsA-lux reporter assay (Diggle et al., [2011]).
# To inform the structural variation of 7, crystal structures with the endogenous ligand [4-hydroxy-2-heptylquinoline (NHQ)] and the inhibitor M64 were used (Ilangovan et al., [2013]; Kitao et al., [2018]). The PqsR LBD is dominated by lipophilic interactions, therefore the current SAR exploration mainly focused on varying the aromatic tail substituents and examining the effect of 8-position substitution. The rationale for these modifications was primarily based on molecular docking studies that provided insights into the mode of binding of 7 and approaches intended to improve potency. The substituent at the para- position of the aromatic ring appeared to be crucial for biological activity due to the vital π-π stacking interaction of this group with Tyr^258. […] These strains emit light upon activation of PqsR by the endogenous production of these signal molecules. […] The results of the SAR in this assay highlight the importance of testing any prospective anti-virulence strategy on multiple genetically distinct P. aeruginosa strains as a means to reduce the chance of failure at both pre-clinical and clinical stages (Freschi et al., [2015]).
# PAO1-L Wild type PAO1, Lausanne subline. B.
# PAO1-L mCTX::PpqsA- PAO1-L with chromosomal mini-CTX::PpqsA-lux (Soukarieh lux insertion; TcR et al., 2018) […]
# mini-CTX::PpqsA-lux R6K-based mini-CTX suicide plasmid for the (Diggle et chromosomal insertion of a PpqsA-lux al., 2007) transcriptional reporter fusion; TcR
# Biosensor reporter assay:
# Strains PA14 mCTX::PpqsA-lux and PAO1-L mCTX::PpqsA-lux were constructed using plasmid mini-CTX::PpqsA-lux as previously described (Diggle et al., 2007) and the assay was performed according to published procedures (Fletcher et al., 2007). For screening, the compounds were tested at 10 µM concentration which was prepared from 10 mM stock in DMSO. […]
# PAO1-L = test: AQ (HHQ, PQS) quantification by LC-MS/MS in planktonic cultures, PAO1-L; conditions: 3 x IC50
# Description: (§1) Since PqsR controls expression of the pqsABCDE operon encoding the enzymes required for different stages of AQ biosynthesis, quantification of HHQ, and PQS provides a direct measurement for inhibition of the biosynthetic pathway. Compound 40 was evaluated for its effect on AQ biosynthesis at a concentration three times the corresponding IC50 values for PAO1-L and PA14.
# (§2) Figure 5 Effect of compound 40 on AQ production: Quantification of AQ concentrations after treatment with the PqsR inhibitor 40 at 3x IC50 value for PAO1-L and PA14 each strain. The graph represents the average of three independent experiments carried out in triplicate (n = 9) for both strains.
# (§3) For each test sample, 100µl of sterile filtered supernatant (the same preparation as for pyocyanin) was spiked with 10µl of an internal standard solution (10µM d4-PQS in MeOH), and diluted with water to a total volume of 500µl. […]
# (§4) screening of the LC eluent for specific AQ analytes. Where chromatographic peaks for HHQ and PQS were detected, a peak area was determined and analyte peak area/internal standard peak area calculated.
# (§5) AQ quantification in biofilm cultures: […]
# (§6) For this experiment, the P. aeruginosa PAO1-L strain and M9 minimal medi um were used. […] The supernatant was col lected and the AQ extraction and quantification were performed following the LC MS/MS protocol described above . […]
# PA14 = test: AQ (HHQ, PQS) quantification by LC-MS/MS in planktonic cultures, PA14; conditions: 3 x IC50
# Description: as §1, §2, §3, §4, §5, §6
structure (smiles),measurement,setting,value
"Cn1c2ccccc2c2nnc(SCC(=O)Nc3ccc(Oc4ccccn4)cc3)nc21 [Compound 40, 2-((5-Methyl-5H-[1,2,4]triazino[5,6-b]indol-3-yl)thio)-N-(4-(pyridin-2-yloxy)phenyl)acetamide]",IC50,PAO1-L mCTX::PpqsA-lux,250 ± 120 nM
same,production of HHQ and PQS,PAO1-L,substantially reduce
same,production of HHQ and PQS,PA14,substantially reduce
